From patent publication US10941384B2, “Compositions and methods for promoting the generation of endocrine cells” (President and Fellows of Harvard College, priority 2013, dated 2021)

Assays:
[1] = system: NGN3 mRNA (HUES 8-derived pancreatic progenitor cells); assay: qRT-PCR of NGN3 expression in chemically-treated populations; format: cell-based, human; settings: quantitative RT-PCR, HUES 8-derived cells
Text: [drawing 11] was selected for follow up studies due to the high efficacy and low toxicity (FIG. 1C).

[2] = system: human c-peptide in serum of SCID-Beige mice; assay: Kidney capsule transplantation of treated cells, glucose-stimulated human c-peptide ELISA; format: in vivo; settings: treated cells under kidney capsule of SCID-beige mice, 12 weeks, 30 mins after glucose
Text: FIGS. 2A-2B show the characterization of cells derived by PKC inhibitor treatment. […] Cells were stained with insulin, c-peptide, glucagon, UCN3, PDX1 and NKX6-1 antibodies. All insulin-expressing cells express c-peptide. Few insulin-expressing cells express NKX6-1 or UCN3, markers of mature human β cells. Many insulin-expressing cells co-express another endocrine marker glucagon. Scale bars are 100 μm. […] Scheme beginning with cells that have been treated with hit chemicals, e.g., PKC inhibitors, comprises a population containing many NGN3-expressing cells. The HUES 8-derived pancreatic progenitor cells treated with DMSO were used as negative controls. […] 12 weeks later, the mouse sera collected at fasting condition and at 30 mins after glucose stimulation were analyzed using ELISA to measure human c-peptide expression. […]
Kidney capsule implantation and tissue preparation. […] The c-peptide levels in mouse sera were measured using the human c-peptide ELISA kit (Alpco Diagnostics or Millipore).
The inventors next investigated the developmental potential of cell populations enriched for NGN3^+ cells that were induced by PKC inhibition. […] More c-peptide (a byproduct of insulin biosynthesis)-expressing cells were detected in the derivatives of PKCβ inhibitor treated cells (12.5 5.8%) than the derivatives of control cells (DMSO-treated, 1.2 1.2%; FIG. 2b). […]

[3] = system: Human NGN3 (HUES 8-pancreatic progenitor population); assay: High-content screen 1 and efficacy curve: NGN3+ cells by immunofluorescence (Cellomics); format: cell-based
Description: hESC culture and differentiation. Protocol 1. HUES 8 and H1 cells are routinely cultured on irradiated MEF feeder cells in KnockOut DMEM (Invitrogen) supplemented with 10% (v/v) KnockOut serum replacement (Invitrogen), 0.5% (v/v) human plasma fraction (Talecris Biotech), 2 mM L-glutamine (Invitrogen), 1.1 mM 2-mercaptoethanol (Invitrogen), 1 mM nonessential amino acids (Invitrogen), 1× penicillin/streptomycin (PS, Invitrogen) and 10 ng/ml bovine FGF (Invitrogen). Cells are passaged at the ratio of 1:6 every 5 d by using 0.05% trypsin (Invitrogen). To generate the HUES-pancreatic progenitor population, HUES cells were cultured on MEF feeder cells until 80-90% confluent, then treated with 25 ng/ml Wnt3a (R&D systems)+100 ng/ml activin A (R&D systems) in RPMI (Invitrogen) supplemented with 1×L-glutamine and 1×PS for 1 d, and then 100 ng/ml activin A in RPMI supplemented with 1×L-glutamine, 1×PS and 0.2% (v/v) fetal bovine serum (FBS, Invitrogen). The medium was changed 2 d later to 50 ng/ml/FGF7 (R&D systems) in RPMI supplemented with 1×L-glutamine, 1×PS and 2% (v/v) FBS, and maintained for an additional 2 d. Cells were then transferred to 100 ng/ml Noggin (R&D systems)+0.25 μM SANT-1 (Sigma)+2 μM retinoic acid (Sigma) in DMEM supplemented with 1×L-glutamine, 1×PS and 1×B27 (Invitrogen) and cultured for an 4 d, followed by treatment with 100 ng/ml Noggin (R&D systems)+1 μM ALK5 inhibitor (Enzo)+100 nM PDBu (Sigma) in DMEM supplemented with 1×L-glutamine, 1×PS and 1×B27 (Invitrogen) and cultured for an additional 4 d. All HUES-pancreatic progenitor cells were derived using the same protocol as described above. The percentage and number of PDX1^+ cells and NGN3^+ cells were analyzed with the Cellomics high content screening system (Thermo Scientific). PKCβ inhibitor was purchased from Calbiochem.
High-content screen 1. […]
Screen 1: Generation of efficacy curve. […] Six days later, the cells were stained with NGN3 antibody and the plates were analyzed with the Cellomics high content screening system (Thermo Scientific). […]

pancreatic progenitors = settings: previously reported, US2011/0070645; cited from earlier work

EC50 ([3]; Homo sapiens, 144 h, HUES 8-pancreatic progenitor population, six days, FIG. 1D, read-out: EC50, total number of NGN3+ cells) [µM]	Compound	expression of NGN3 mRNA compared to DMSO controls [1]	human c-peptide levels in the serum, glucose injection versus fasting [2]	percentage of NGN3+ cells, fold higher than the DMSO-treated controls ([3]; HUES 8, at maximum) [fold]	toxicity in screen 1 ([3]; reason for selection for follow up)	generation of pancreatic progenitors (pancreatic progenitors)
7.8	O=C1NC(=O)C(c2cn(CCCn3ccnc3)c3ccccc23)=C1Nc1ccccc1 [PKCβ inhibitor]	higher expression of NGN3 mRNA	significantly higher upon glucose injection than during fasting	~7	low toxicity	
	(−)-Indolactam V					promotes the generation of pancreatic progenitors
